Broadly, the LD50 is the dose expected to kill half of the subjects tested.

Data set [1] deals with basilar artery of a rabbit (contraction induced by KCl). Put plainly: Contraction of removed rabbit basilar artery in a hyperpotassic medium (calcium antagonistic activity). It counts as cell-based. Conditions: Oryctolagus cuniculus, KCl at 35 mmoles, read-out: IC50 (concentration which reduces by 50% the amplitude of the contraction induced by KCl). As to the method: The protocol of this test is the following. The rabbit is anaesthetized with pentobarbital at a dose of 30 mg/kg then sacrificed by exsanguination and decapitated at the third cervical vertebra. The basilar artery is removed (1.5 cm) between the vertebral arteries and the Willis's polygon. The basilar artery is then cut in a spiral at an angle of 45°. It is fixed by means of a curved needle between an L shaped glass support and a movement sensor (Grass, type FT03). A mechanical tension of 500 mg is applied to the vessel, before letting it reach its equilibrium condition.
For a period of 1 hour, the vessel is rinsed every 20 minutes, until a stable level is obtained.
The tonic contraction following depolarization caused by KCl is dependent on the calcic movements for it is abolished by the suppression of calcium in the survival medium.
The concentrations (in nM) are measured which reduce by 50% the amplitude of the contraction induced by the KCl at 35 mmoles.

Data set [2] in a line: Acute toxicity (LD50) in mice, method of Litchfield and Wilcoxon. Particulars: mouse, in vivo, iv.

A value given as a limit tells only on which side of the number the result lay.

For the compound `COc1ccc(OC2CCCCC2)c(OCCN2CCCCC2)c1C(O)CCc1ccc(O)cc1` (stereo not drawn) [compound 173], the IC50 in data set [1] was above 100 nM. On the same count and under the same terms, the figure for `COc1ccc(O)c(OCCN2CCCCC2)c1C(O)CCc1ccc(O)cc1` (stereo not drawn) [compound 169] is above 100 nM; for `CCCOc1ccc(OC)c(C(O)CCc2ccc(O)cc2)c1OCCN1CCCCC1` (stereo not drawn) [compound 166] it is 120 nM; for `COc1ccc(OCc2ccccc2)c(C(O)CCc2ccc(O)cc2)c1OCCN1CCCCC1` (stereo not drawn) [compound 146] it is above 100 nM.

Turning to `COc1ccc(O)c(C(O)CCc2ccc(O)cc2)c1OCCN1CCCCC1` (stereo not drawn) [compound 148], the IC50 in data set [1] was above 100 nM. Same read-out and setting: the figure for `COc1ccc(OCC(F)(F)F)c(OCCN2CCCCC2)c1C(O)CCc1ccc(O)cc1` (stereo not drawn) [compound 137] is above 100 nM; for `COCCOc1ccc(OC)c(C(O)CCc2ccc(O)cc2)c1OCCN1CCCCC1` (stereo not drawn) [compound 171] it is above 100 nM. Regarding `CCOc1ccc(OC)c(C(O)CCc2ccc(O)cc2)c1OCCN1CCCCC1` (stereo not drawn) [compound 164], the IC50 in data set [1] came to 24 nM. In addition, the LD50 in data set [2] worked out at 17 mg/kg. In the case of `CCSc1ccc(OC)c(C(O)CCc2ccc(O)cc2)c1OCCN1CCCCC1` (stereo not drawn) [compound 175], the IC50 in data set [1] came out at 31 nM. For the compound `COc1ccc(SC)c(OCCN2CCCCC2)c1C(O)CCc1ccc(O)cc1` (stereo not drawn) [compound 174], the IC50 in data set [1] was determined as 27 nM. This compound showed an LD50 in data set [2] of 22 mg/kg. Turning to `CCCCCCCCOc1ccc(OC)c(OCCN2CCCCC2)c1C(O)CCc1ccc(O)cc1` (stereo not drawn) [compound 156], the IC50 in data set [1] is above 100 nM. On the same count and under the same terms, to `CCOc1ccc(OC)c(OCCN2CCCCC2)c1C(O)CCc1ccc(O)cc1` (stereo not drawn) [compound 160] belongs 6 nM; to `C=CCOc1ccc(OC)c(C(O)CCc2ccc(O)cc2)c1OCCN1CCCCC1` (stereo not drawn) [compound 167], 53 nM; to `COc1ccc(OC2CCCCC2)c(C(O)CCc2ccc(O)cc2)c1OCCN1CCCCC1` (stereo not drawn) [compound 158], above 100 nM. The same measure, in the same setting: to `COc1ccc(OC(C)C)c(C(O)CCc2ccc(O)cc2)c1OCCN1CCCCC1` (stereo not drawn) [compound 154] belongs 13 nM. The same measure, in the same setting: to `CCCOc1ccc(OC)c(OCCN2CCCCC2)c1C(O)CCc1ccc(O)cc1` (stereo not drawn) [compound 152] belongs 10 nM. With `COc1ccc(C)c(C(O)CCc2ccc(O)cc2)c1OCCN1CCCCC1` (stereo not drawn) [compound 177], the IC50 in data set [1] stood at 30 nM.

With `COc1ccc(OCc2ccccc2)c(OCCN2CCCCC2)c1C(O)CCc1ccc(O)cc1` (stereo not drawn) [compound 168], the IC50 in data set [1] was above 100 nM. Still for that read-out and setting: the figure for `CCCCOc1ccc(OC)c(OCCN2CCCCC2)c1C(O)CCc1ccc(O)cc1` (stereo not drawn) [compound 150] is 100 nM.

These data come from US5144029A, “Derivatives of 1-[3-(4-hydroxyphenyl) 1-hydroxy 1-propyl] benzene substituted in position 2 by an aminoalkyleneoxy chain, the method of preparing same and the application thereof to therapeutics” (Delalande S.A., priority 1988, dated 1992).
